Key:
Format in all cases: functional
Klebsiella aerogenes = assay: Antibacterial activity against Enterobacter aerogenes assessed as bacterial growth inhibition
Proteus vulgaris = assay: Antibacterial activity against Proteus vulgaris assessed as bacterial growth inhibition
Enterococcus faecium = assay: Antibacterial activity against Enterococcus faecium assessed as bacterial growth inhibition
Klebsiella pneumoniae [1] = assay: Antibacterial activity against Klebsiella pneumoniae producing extended spectrum beta-lactamases assessed as bacterial growth inhibition
[2] = test system: Staphylococcus epidermidis; assay: Antibacterial activity against methicillin-sensitive Staphylococcus epidermidis assessed as bacterial growth inhibition
Klebsiella pneumoniae [3] = assay: Antibacterial activity against Klebsiella pneumoniae assessed as bacterial growth inhibition
Staphylococcus aureus [4] = assay: Antibacterial activity against methicillin-sensitive Staphylococcus aureus assessed as bacterial growth inhibition
Escherichia coli [5] = assay: Antibacterial activity against Escherichia coli producing extended spectrum beta-lactamases assessed as bacterial growth inhibition
Escherichia coli [6] = assay: Antibacterial activity against Escherichia coli assessed as bacterial growth inhibition
Providencia rettgeri = assay: Antibacterial activity against Providencia rettgeri assessed as bacterial growth inhibition
Pseudomonas aeruginosa [7] = assay: Antibacterial activity against Pseudomonas aeruginosa assessed as bacterial growth inhibition
Enterococcus faecalis = assay: Antibacterial activity against Enterococcus faecalis assessed as bacterial growth inhibition
Enterobacter cloacae = assay: Antibacterial activity against Enterobacter cloacae assessed as bacterial growth inhibition
Escherichia coli [8] = assay: Antibacterial activity against multidrug-resistant Escherichia coli assessed as bacterial growth inhibition incubated for 24 hrs by […] method
Escherichia coli [9] = assay: Antibacterial activity against Escherichia coli assessed as bacterial growth inhibition by broth microdilution method
Staphylococcus aureus [10] = assay: Antibacterial activity against Staphylococcus aureus assessed as bacterial growth inhibition by broth microdilution method
Klebsiella pneumoniae [11] = assay: Antibacterial activity against Klebsiella pneumoniae assessed as bacterial growth inhibition by broth microdilution method
Pseudomonas aeruginosa [12] = assay: Antibacterial activity against Pseudomonas aeruginosa ATCC 10145 assessed as bacterial growth inhibition measured for 5 to 20 mins by broth dilution method; settings: time 5-20 min
Staphylococcus aureus [13] = assay: Antibacterial activity against Staphylococcus aureus ATCC 43300 assessed as bacterial growth inhibition measured for 5 to 20 mins by broth dilution method; settings: time 5-20 min
Staphylococcus aureus [14] = assay: Antibacterial activity against Staphylococcus aureus assessed as bacterial growth inhibition incubated for 24 hrs by spectrophotometry
Pseudomonas aeruginosa [15] = assay: Antibacterial activity against Pseudomonas aeruginosa assessed as bacterial growth inhibition incubated for 24 hrs by spectrophotometry
Escherichia coli [16] = assay: Antibacterial activity against Escherichia coli assessed as bacterial growth inhibition incubated for 24 hrs by spectrophotometry
Bacillus subtilis [17] = assay: Antibacterial activity against Bacillus subtilis assessed as bacterial growth inhibition incubated for 24 hrs by spectrophotometry
Bacillus subtilis [18] = assay: Antibacterial activity against Bacillus subtilis assessed as bacterial growth inhibition by broth microdilution method
Pseudomonas aeruginosa [19] = assay: Antibacterial activity against Pseudomonas aeruginosa assessed as bacterial growth inhibition by broth microdilution method
Klebsiella pneumoniae [20] = assay: Antibacterial activity against Klebsiella pneumoniae assessed as bacterial growth inhibition by broth dilution method
Pseudomonas aeruginosa [21] = assay: Antibacterial activity against Pseudomonas aeruginosa assessed as bacterial growth inhibition by broth dilution method

Measured: MIC

CO/N=C1\C(=O)N(Cc2cn(CC(=O)N3CCC[C@@H]4CN(c5c(F)cc6c(=O)c(C(=O)O)cn(C7CC7)c6c5OC)C[C@@H]43)nn2)c2ccc(C)cc21
≤ 0.03 µg/mL: Klebsiella aerogenes | Proteus vulgaris | Enterococcus faecium | Klebsiella pneumoniae [1] | [2] | Klebsiella pneumoniae [3] | Staphylococcus aureus [4] | Escherichia coli [5] | Escherichia coli [6] | Providencia rettgeri | Pseudomonas aeruginosa [7] | Enterococcus faecalis | Enterobacter cloacae

c1ccc(-n2cc(COc3ccc(-c4nc5ccccc5s4)cc3)nn2)cc1
7.99 µg/mL: Escherichia coli [8]

COC(=O)[C@H](Cc1cn(Cc2cn(-c3ccccc3[N+](=O)[O-])nn2)c2ccccc12)NC(=O)[C@@H](C)c1ccc2cc(OC)ccc2c1
25 µg/mL: Escherichia coli [9] | Staphylococcus aureus [10] | Klebsiella pneumoniae [11]

COCCOCCOCCOC(=O)c1cccc(-n2cc(CO[C@@H]3O[C@H](COC(C)=O)[C@H](OC(C)=O)[C@H](OC(C)=O)[C@H]3OC(C)=O)nn2)c1
5 µg/mL: Pseudomonas aeruginosa [12] | Staphylococcus aureus [13]

CCO/N=C1\C(=O)N(Cc2cn(CC(=O)N3CCC[C@@H]4CN(c5c(F)cc6c(=O)c(C(=O)O)cn(C7CC7)c6c5OC)C[C@@H]43)nn2)c2ccccc21
≤ 0.03 µg/mL: Klebsiella aerogenes | Proteus vulgaris | Enterococcus faecium | Klebsiella pneumoniae [1] | [2] | Klebsiella pneumoniae [3] | Staphylococcus aureus [4] | Escherichia coli [5] | Escherichia coli [6] | Providencia rettgeri | Pseudomonas aeruginosa [7] | Enterococcus faecalis | Enterobacter cloacae

Clc1cccc(Cn2cc(COc3ccc(-c4nc5ccccc5s4)cc3)nn2)c1
8.02 µg/mL: Escherichia coli [8]

Cc1c(C(=O)/C=C/c2ccc(Cl)cc2)nnn1-c1ccc(Cl)c(Cl)c1
1.3 µg/mL: Staphylococcus aureus [14] | Pseudomonas aeruginosa [15] | Escherichia coli [16] | Bacillus subtilis [17]

CC1(C)S[C@@H]2[C@H](NC(=O)[C@H](N)c3ccc(O)cc3)C(=O)N2[C@H]1C(=O)O [AMOXICILLIN]
25 µg/mL: Escherichia coli [9] | Staphylococcus aureus [10] | Klebsiella pneumoniae [11]

CC1(C)S[C@@H]2[C@H](NC(=O)[C@H](N)c3ccccc3)C(=O)N2[C@H]1C(=O)O [AMPICILLIN]
5 µg/mL: Pseudomonas aeruginosa [12]
1 µg/mL: Pseudomonas aeruginosa [19]
4 µg/mL: Bacillus subtilis [18] | Escherichia coli [9] | Staphylococcus aureus [10]
2.5 µg/mL: Staphylococcus aureus [13]

C[C@H]1COc2c(N3CCN(C)CC3)c(F)cc3c(=O)c(C(=O)O)cn1c23 [LEVOFLOXACIN ANHYDROUS]
33.6 µg/mL: Staphylococcus aureus [14] | Pseudomonas aeruginosa [15] | Escherichia coli [16] | Bacillus subtilis [17]

CC1(C)S[C@@H]2[C@H](NC(=O)Cc3ccccc3)C(=O)N2[C@H]1C(=O)O [PENICILLIN G]
18.8 µg/mL: Pseudomonas aeruginosa [21]
9.37 µg/mL: Klebsiella pneumoniae [20]

Source: ChEMBL document CHEMBL5344406, “1,2,3-Triazole-containing hybrids with potential antibacterial activity against ESKAPE pathogens” (2022)
